Experimental data reported in patent US20250236617A1, “BICYCLIC TETRAHYDROTHIAZEPINE DERIVATIVES” (Hoffmann-La Roche Inc., priority 2022, published 2025).

What was measured:
DGK α kinase = DGK α kinase (Homo sapiens (Human), UniProt P23743); assay: In vitro DGK inhibition assay: ADP Glo run by Reaction Biology Corp., DGKalpha; type: biochemical; details: 2 nM enzyme, 500 uM DLG, 10-dose duplicate
Description: (§1) DGK α and ζ kinases use ATP to phosphorylate the substrate 1,2-dilauroyl-sn-glycerol (DLG). ATP is converted to ADP as a result of this enzymatic reaction.
(§2) After the kinase reaction, an ATP-depletion reagent is added to terminate the kinase reaction and deplete any remaining ATP, leaving only ADP. Second, a detection reagent is added to simultaneously convert ADP to ATP and allow the newly synthesized ATP to be converted to light using a coupled luciferase/luciferin reaction.
(§3) DGK α and ζ kinase ADP Glo assays were ran by Reaction Biology Corp., 1 Great Valley Parkway, Suite 2, Malvern, 19355, PA, USA. Information provided by the service provider are the following: DGK α and ζ kinases were used at 2 nM final concentration. Reactions were carried out at 50 µM ATP. 500 uM of the substrate DLG (Dilauroyl-sn-glycerol) was used.

DGK ζ kinase = DGK ζ kinase (Homo sapiens (Human), UniProt Q13574); assay: In vitro DGK inhibition assay: ADP Glo run by Reaction Biology Corp., DGKzeta; type: biochemical; details: 2 nM enzyme, 500 uM DLG, 10-dose duplicate
Sequence of DGK ζ kinase (Q13574 whole entry): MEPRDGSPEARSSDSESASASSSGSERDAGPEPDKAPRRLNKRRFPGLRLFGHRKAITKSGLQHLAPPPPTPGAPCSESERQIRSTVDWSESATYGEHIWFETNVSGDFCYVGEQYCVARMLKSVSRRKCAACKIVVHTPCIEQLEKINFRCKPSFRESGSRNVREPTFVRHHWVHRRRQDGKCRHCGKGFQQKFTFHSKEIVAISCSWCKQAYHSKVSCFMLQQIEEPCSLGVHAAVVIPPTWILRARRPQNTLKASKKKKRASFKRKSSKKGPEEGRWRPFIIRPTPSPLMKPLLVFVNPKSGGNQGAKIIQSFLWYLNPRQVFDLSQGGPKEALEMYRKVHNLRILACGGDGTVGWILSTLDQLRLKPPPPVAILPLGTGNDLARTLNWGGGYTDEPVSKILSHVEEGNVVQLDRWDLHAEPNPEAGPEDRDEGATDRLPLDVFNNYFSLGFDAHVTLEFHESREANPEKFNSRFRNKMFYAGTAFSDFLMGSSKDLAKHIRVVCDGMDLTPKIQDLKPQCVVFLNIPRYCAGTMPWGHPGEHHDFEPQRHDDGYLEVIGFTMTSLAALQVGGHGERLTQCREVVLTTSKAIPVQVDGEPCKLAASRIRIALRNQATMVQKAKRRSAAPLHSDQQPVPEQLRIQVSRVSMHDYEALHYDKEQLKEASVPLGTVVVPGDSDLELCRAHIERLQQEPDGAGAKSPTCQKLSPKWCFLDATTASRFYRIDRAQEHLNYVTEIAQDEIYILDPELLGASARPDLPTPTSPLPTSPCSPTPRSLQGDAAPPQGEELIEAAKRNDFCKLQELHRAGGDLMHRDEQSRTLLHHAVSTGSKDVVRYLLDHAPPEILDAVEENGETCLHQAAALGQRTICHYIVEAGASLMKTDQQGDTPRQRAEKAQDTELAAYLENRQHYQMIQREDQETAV
Description: as §1, §2, §3

Sequence of DGK α kinase (P23743 whole entry): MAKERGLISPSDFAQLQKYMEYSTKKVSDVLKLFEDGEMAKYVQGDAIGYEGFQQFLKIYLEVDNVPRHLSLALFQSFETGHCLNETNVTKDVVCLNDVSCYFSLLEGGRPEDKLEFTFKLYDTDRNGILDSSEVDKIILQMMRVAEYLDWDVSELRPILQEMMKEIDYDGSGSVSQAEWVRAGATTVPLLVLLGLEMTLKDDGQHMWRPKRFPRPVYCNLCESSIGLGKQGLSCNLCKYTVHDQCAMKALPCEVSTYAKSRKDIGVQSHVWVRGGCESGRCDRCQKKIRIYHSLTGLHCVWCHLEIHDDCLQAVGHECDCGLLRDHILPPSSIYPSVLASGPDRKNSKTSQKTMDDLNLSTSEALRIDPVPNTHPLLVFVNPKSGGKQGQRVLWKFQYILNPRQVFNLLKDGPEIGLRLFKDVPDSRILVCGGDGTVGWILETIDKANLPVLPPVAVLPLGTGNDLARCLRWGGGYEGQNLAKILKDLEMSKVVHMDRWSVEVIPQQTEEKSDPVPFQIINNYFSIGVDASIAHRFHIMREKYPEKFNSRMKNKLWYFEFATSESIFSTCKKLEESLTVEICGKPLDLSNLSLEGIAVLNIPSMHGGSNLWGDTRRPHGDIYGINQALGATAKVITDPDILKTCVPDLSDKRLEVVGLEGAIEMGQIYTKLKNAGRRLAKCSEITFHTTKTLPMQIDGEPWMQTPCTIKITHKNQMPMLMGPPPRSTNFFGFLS

IC50 (DGK α kinase): 0.372 µM
IC50 (DGK ζ kinase): 0.309 µM
SMILES: CC(C)(C#N)c1cncc(-c2cc3c(cc2F)S(=O)(=O)C[C@H](N)C(=O)N3Cc2ccc(-c3noc(C(F)(F)F)n3)cc2)c1 [Example 23, 2-[5-[(3R)-3-amino-8-fluoro-1,1,4-triketo-5-[4-[5-(trifluoromethyl)-1,2,4-oxadiazol-3-yl]benzyl]-2,3-dihydro-1λ6,5-benzothiazepin-7-yl]-3-pyridyl]-2-methyl-propionitrile]
